From patent publication US4980362A, “4-substituted-2-alkoxytetrahydrofuran derivatives” (J. Uriach & CIA. S.A., priority 1990, dated 1990) come the findings set out here.

The structures appear in SMILES notation.

Assay [1] relates to platelet aggregation induced by PAF. The assay can be described thus: Test 1: Inhibition of platelet aggregation induced by PAF. Format: cell-based, rabbit (male New Zealand albino). To be noted: rabbit platelet rich plasma, PAF (C18) 16 nM final, Born nephelometric technique. As to the method: Test 1: Inhibition of platelet aggregation induced by PAF.
The blood is obtained by cardiac puncture of male New Zealand albino rabbits (between 2 and 2.5 Kg of weight) and coagulation is prevented by adding 1 part of 3.16% sodium citrate dihydrate in 9 parts of blood. The platelet rich plasma (PRP) is prepared by blood centrifugation at 250×g for 10 min. at 4° C. and it is diluted with platelet poor plasma (PPP) by additional centrifugation at 3000×g for 10 min. The amount of platelets is adjusted to […]. The platelet aggregation induced by PAF (C18; prepared in our laboratory) (16 nM, final) is determined by the Born nephelometric technique (J. Physiol., 1962, 162, 67) using a aggregometer Chrono-log 500. The activities of the inhibitors are expressed as IC50, that is to say the concentration of the drug needed to inhibit the platelet aggregation by 50%.

For assay [2], the system named is hypotension induced by PAF. The assay can be described thus: Test 2: Inhibition of the hypotensive effect induced by PAF in normotense rats. Format: in vivo, rat (male Sprage Dawley). The following applies: anesthetized male rats, compound 3 min before PAF 0.5 mcg/Kg i.v., text calls it IC50; for ED50: Rattus norvegicus, iv, read-out: CI50 (the source's name); for CI50: i.v. As to the method: Test 2 - Inhibition of the hypotensive effect induced by PAF in normotense rats.
Male Sprage Dawley rats, of 180-220 g of weight, anesthetized with sodium pentobarbital (50 mg/Kg, i.p. 1 mL/100 g) have been used. In order to measure the average arterial pressure, a polyethylene catheter is introduced into the carotid artery. The arterial pressure is recorded with the help of a transducer connected with a R611 Beckman polygraph. The tested compounds are administered through the femoral vein 3 min before the injection of PAF (0.5 mcg/Kg, i.v.).

The test system of assay [3] is PAF-induced mortality. The assay can be described thus: Test 3: PAF-induced mortality in mice (p.o.). Format: in vivo, mouse (Swiss). To be noted: 1 hour before C18-PAF 100 mcg/kg plus propanolol 1 mg/kg i.v., inhibition of mortality, observed 2 hours after PAF; for ED50: Mus musculus, po, 2 h, read-out: ID50 (the source's name). As to the method:
Finally, certain compounds of the present invention show an improved oral activity with regard to other chemically related PAF-antagonists reported in the literature, such as CV-6209, (disclosed in EP No. 157609) as shown by test 3:
Test 3 - PAF-induced mortality in mice (p.o.)
The experiment is carried out according to the method of Young et al. (Prostaglandins, 1985, 30, 545-551). Groups of 10 Swiss mice weighing 22-26 g are used. 100 mcg/kg of C18 -PAF plus 1 mg/kg of propanolol are intravenously administered in a lateral tail vein 1 hour after the oral administration of test compounds (0.1 mL/10 g). Every animal is observed 2 hours after the PAF injection. Percent inhibition of mortality due to treatments in comparison with control group are recorded. Results are given as ID50 values (mg/kg) in table 3.

Where [4] appears, read: Oryctolagus cuniculus, Platelet.

Usually IC50 stands for the midpoint of a concentration-inhibition curve. In the case of `CCCCCCCCCCCCCCCCCCOC1CC(COC(=O)N(Cc2cccc[n+]2C)C(C)=O)CO1` (racemic) [Compound 3, (±)-cis,trans-1-methyl-2-[N-acetyl-N-[[[(2-octadecyloxytetrahydrofuran-4-yl)methoxy]carbonyl]amino]methyl]pyridinium iodide], in assay [1] (setting [4]), it took 45 nM to reach half-maximal inhibition (IC50). Also, the results for the ED50 in assay [2] and in assay [3] were 0.08 mg/kg and greater than 100 mg/kg, respectively.

As to `CCCCCCCCCCCCCCCCCCOC1CC(COC(=O)N(Cc2cccc[n+]2CC)C(C)=O)CO1` (racemic) [Compound 4, (±)-cis,trans-1-ethyl-2-[N-acetyl-N-[[[(2-octadecyloxytetrahydrofuran-4-yl)methoxy]carbonyl]amino]methyl]pyridinium iodide], the IC50 in assay [1] (setting [4]) was determined as 16 nM. The same compound came in with a CI50 in assay [2] of 0.053 mg/kg. Moreover, in assay [3], the ED50 amounted to 14 mg/kg.

In the case of `CCCCCCCCCCCCCCCCCCOC1CC(COC(=O)N(Cc2cccc[n+]2CC)C(C)=O)CO1` (racemic) [Compound 5, (±)-cis,trans-1-ethyl-2-[N-acetyl-N-[[[(2-octadecyloxytetrahydrofuran-4-yl)methoxy[carbonyl[amino]methyl]pyridinium chloride], half-maximal inhibition in assay [1] (IC50) was put at 12 nM. In assay [2], the CI50 was 0.024 mg/kg. Moreover, in assay [3] (120 min), the ID50 is 19 mg/kg.

Compound `CCCCCCCCCCCCCCCCOC1CC(COC(=O)N(Cc2cccc[n+]2CC)C(C)=O)CO1` (racemic) [Compound 8, (±)-cis,trans-1-ethyl-2-[N-acetyl-N-[[[(2-hexadecyloxytetrahydrofuran-4-yl)methoxy]carbonyl]amino]methyl]pyridinium iodide] returned an IC50 in assay [1] (setting [4]) of 12 nM. Further, the figures for the ED50 in assay [2] and in assay [3] were 0.01 mg/kg and 80 mg/kg, respectively.

In assay [1] (setting [4]), `CCOC1CC(COC(=O)N(Cc2cccc[n+]2CC)C(C)=O)CO1` (racemic) [Compound 11, (±)-cis,trans-1-ethyl-2-[N-acetyl-N-[[[(2-ethoxytetrahydrofuran-4-yl)methoxy]carbonyl]amino]methyl]pyridinium iodide] gave an IC50 of 2900 nM. For the same compound, in assay [2], the ED50 worked out at 2.3 mg/kg.

For `CC[n+]1ccccc1CN(C(C)=O)C(=O)OCC1COC(OCCC(C)C)C1` (racemic) [Compound 14, (±)-cis,trans-1-ethyl-2-[N-acetyl-N-[[[(2-(3-methylbutoxy)tetrahydrofuran-4-yl)methoxy]carbonyl]amino]methyl]pyridinium iodide], the IC50 in assay [1] (setting [4]) is 700 nM. Further, in assay [2], the ED50 is 0.21 mg/kg.

`CC[n+]1ccccc1CN(C(C)=O)C(=O)OCC1COC(OCCCc2ccccc2)C1` (racemic) [Compound 17, (±)-cis,trans-1-ethyl-2-[N-acetyl-N-[[[(2-(3-phenylpropoxy)tetrahydrofuran-4-yl)methoxy]carbonyl]amino]methyl]pyridinium iodide] registered an IC50 in assay [1] (setting [4]) of 190 nM. Further, the ED50 in assay [2] was determined as 0.12 mg/kg.

For the compound `CCCCCCCCCCCCCCCCCCNC(=O)OCC(COC(=O)N(Cc1cccc[n+]1CC)C(C)=O)OC` (stereo not shown) [CV-6209, reference compound], the ED50 in assay [3] is 70 mg/kg.
